Here are results for 18 molecules from patent EP4803519A1, “NOVEL PRMT5 INHIBITOR AND USE THEREOF” (Shanghai Apeiron Therapeutics Company Limited, priority 2023, dated 2025).

Assay [1] deals with HCT-116 wild-type cells. The experiment in a line: Inhibitory activity on proliferation of HCT-116 wild-type cells (Cell-Titer Glo). Type of assay: cell-based. The conditions noted are these: Homo sapiens, 144 h, incubated 6 d, 0-10,000 nM. The method, then:
Materials and cells: HCT-116 wild-type cells were purchased from Kyinno Biotechnology (China); RPMI-1640 medium, and fetal bovine serum were purchased from Thermo Fisher (United States); 384-well plates were purchased from PerkinElmer (United States); Cell-Titer Glo kit was purchased from Promega (United States).
Cell culture: HCT-116 wild-type cells were cultured in RPMI-1640 medium containing 10% fetal bovine serum at 37°C and 5% carbon dioxide. Only cells in the logarithmic growth phase could be used for the test.
Test of cell proliferation activity: Cell-Titer Glo kit was used to test the proliferation inhibitory activity of the compound on HCT-116 wild-type cells. The cell concentration was adjusted, rendering that cells were inoculated into a 384-well plate at 40 µL per well and incubated overnight at 37°C and 5% carbon dioxide. 80 nL of the compound was added to each well to reach a final concentration of 0-10,000 nM (starting concentration 10,000 nM, 2.5-fold dilution, 10 points), and the cell plate with 0.2% DMSO content was incubated at 37°C and 5% carbon dioxide for 6 d. 40 µL of Cell-Titer Glo reagent was added to test cell viability.

Assay [2] has as its system HCT-116 MTAP(-/-)deleted cells. The experiment in a line: Inhibitory activity on proliferation of HCT-116 MTAP(-/-)deleted cells (Cell-Titer Glo). As to conditions: Homo sapiens, 144 h, incubated 6 d, 0-1,000 nM. Type of assay: cell-based. The method, then:
Materials and cells: HCT-116 MTAP(-/-)deleted cells were purchased from Kyinno Biotechnology (China); RPMI-1640 medium, and fetal bovine serum were purchased from Thermo Fisher (United States); 384-well plates were purchased from PerkinElmer (United States); Cell-Titer Glo kit was purchased from Promega (United States).
Cell culture: HCT116 MTAP(-/-)deleted cells were cultured with RPMI 1640 medium containing 10% fetal bovine serum at 37°C in 5% carbon dioxide. Only cells in the logarithmic growth phase could be used for the test.
Test of inhibitory activity on cell proliferation: The Cell-Titer Glo kit was used to test the proliferation inhibitory activity of the compounds on HCT-116 MTAP(-/-)deleted cells. The cell concentration was adjusted, rendering that cells were inoculated into a 384-well plate at 40 µL per well and incubated overnight at 37°C and 5% carbon dioxide. 80 nL of the compound was added into each well to reach a final concentration of 0-1,000 nM (starting concentration 1,000 nM, 2.5-fold dilution, 10 points), and the cell plate with 0.2% DMSO content was incubated at 37°C and 5% carbon dioxide for 6 d. 40 µL of Cell-Titer Glo reagent was added to test cell viability.

As to `CN(C(=O)c1ccc2nc(N)c3cnn(C)c3c2c1)[C@@H]1COC(C)(C)c2cc(C3=CCOCC3)ccc21` [Example 57, (S)-4-amino-N-(7-(3,6-dihydro-2H-pyran-4-yl)-1,1-dimethylisochroman-4-yl)-N,1-dimethyl-1H-pyrazolo[4,3-c]quinoxaline-8-carboxamide], the values for the IC50 in assay [1] and in assay [2] were 880 nM and 5.2 nM, respectively.
As to `CN(C(=O)c1cc2c(cn1)nc(N)c1cnn(C)c12)C1COC2(CCC2)c2cc(C(F)(F)F)ccc21` (stereo not drawn) [Example 31], the half-maximal inhibitory concentration (IC50) in assay [1] worked out at 285 nM; in assay [2], 6.2 nM.
Turning to `CN(C(=O)c1ccc2nc(N)c3c(c2c1)CCC3)C1COC(C)(C)c2cc(C(F)(F)F)ccc21` (stereo not drawn) [Example 11, 4-Amino-N-(1,1-dimethyl-7-(trifluoromethyl)isochroman-4-yl)-N-methyl-2,3-dihydro-1H-cyclopenta[c]quinoline-8-carboxamide], the IC50 in assay [1] was determined as 3120 nM; in assay [2], 147 nM.
For `CN(C(=O)c1ccc2nc(N)c3cnn(C)c3c2c1)[C@@H]1COC(C)(C)c2nc(N3CCOCC3)ccc21` [Example 54], the IC50 in assay [1] is 1810 nM; in assay [2], 5.8 nM.
In the case of `CN(C(=O)c1ccc2nc(N)c3cnn(C)c3c2c1)[C@@H]1COC(C)(C)c2cc(N3CC(F)(F)C3)ccc21` [Example 76, (S)-4-amino-N-(7-(3,3-difluoroazetidin-1-yl)-1,1-dimethylisochroman-4-yl)-N,1-dimethyl-1H-pyrazolo[4,3-c]quinoxaline-8-carboxamide], the IC50 in assay [1] stood at 2520 nM; in assay [2], 6.1 nM.
In the same order, the values of `CN(C(=O)c1ccc2nc(N)c3cnn(C)c3c2c1)C1COC(C)(C)c2cc(N3CCC(F)(F)C3)ccc21` (stereo not drawn) [Example 74, 4-Amino-N-(7-(3,3-difluoropyrrolidin-1-yl)-1,1-dimethylisochroman-4-yl)-N,1-dimethyl-1H-pyrazolo[4,3-c]quinoxaline-8-carboxamide] are 2110 nM and 10.5 nM.
The matching figures for `CN(C(=O)c1ccc2nc(N)c3cnn(C)c3c2c1)[C@@H]1COC(C)(C)c2cc(N3CCOCC3)ncc21` [Example 55]: above 10000 nM and 20.2 nM.
For `CN(C(=O)c1ccc2nc(N)c3cnn(C)c3c2c1)[C@@H]1COC(C)(C)c2cc(N3CCC4(CC3)COC4)ccc21` [Example 75, (S)-4-amino-N-(1,1-dimethyl-7-(2-oxa-7-azaspiro[3.5]nonan-7-yl)isochroman-4-yl)-N,1-dimethyl-1H-pyrazolo[4,3-c]quinoxaline-8-carboxamide], the IC50 was 2610 nM in assay [1] and 8.2 nM in assay [2].
In the same order, the values of `CN(C(=O)c1ccc2nc(N)c3c(c2c1)OCCO3)C1COC(C)(C)c2cc(C(F)(F)F)ccc21` (stereo not drawn) [Example 2, 5-Amino-N-(1,1-dimethyl-7-(trifluoromethyl)isochroman-4-yl)-N-methyl-2,3-dihydro-[1,4]dioxa[2,3-c]quinoline-9-carboxamide] are above 10000 nM and above 3000 nM.
On to `CN(C(=O)c1ccc2nc(N)c3c(c2c1)CCCC3)C1COC(C)(C)c2cc(C(F)(F)F)ccc21` (stereo not drawn) [Example 19, 6-Amino-N-(1,1-dimethyl-7-(trifluoromethyl)isochroman-4-yl)-N-methyl-7,8,9,10-tetrahydrophenanthridine-2-carboxamide], for which the IC50 in assay [1] was 7210 nM; in assay [2] it was 318 nM.
The matching figures for `CN(C(=O)c1ccc2nc(N)c3cnn(C)c3c2c1)C1COC(C)(C)c2cc(C(F)(F)F)ccc21` (stereo not drawn) [Example 1, 4-amino-N-(1,1-dimethyl-7-(trifluoromethyl)isochroman-4-yl)-N,1-dimethyl-1H-pyrazolo [4,3-c] quinoline-8-carboxamide]: 1200 nM and 5.2 nM.
On to `CN(C(=O)c1ccc2nc(N)c3cnn(C)c3c2c1)C1COC2(CCC2)c2nc(N3CCOCC3)ccc21` (stereo not drawn) [Example 53, 4-amino-N,1-dimethyl-N-(2'-morpholino-5',6'-dihydrospiro[cyclobutane-1,8'-pyrano[3,4-b]pyridin]-5'-yl)-1H-pyrazolo[4,3-c]quinoxaline-8-carboxamide], for which the IC50 in assay [1] is above 10000 nM; in assay [2], 312 nM.
`CN(C(=O)c1ccc2nc(N)c3ccccc3c2c1)C1COC(C)(C)c2cc(C(F)(F)F)ccc21` (stereo not drawn) [Example 20, 6-Amino-N-(1,1-dimethyl-7-(trifluoromethyl)isochroman-4-yl)-N-methylphenanthridine-2-carboxamide]: the IC50 worked out at 5870 nM in assay [1] and 738 nM in assay [2].
Regarding `Cn1ncc2c(N)nc3cnc(C(=O)N(C4CC4)C4COC5(CCC5)c5cc(C(F)(F)F)ccc54)cc3c21` (stereo not drawn) [Example 87, 4-Amino-N-cyclopropyl-1-methyl-N-(7'-(trifluoromethyl)spiro[cyclobutane-1,1'-isochroman]-4'-yl)-1H-pyrazolo[4,3-c][1,7]naphthyridine-8-carboxamide], the values for the IC50 in assay [1] and in assay [2] were 763 nM and 11.2 nM, respectively.
Turning to `CN(C(=O)c1ccc2nc(N)c3cnn(C)c3c2c1)C1COC(C)(C)c2cc(-c3cnc4cnccn34)ccc21` (stereo not drawn) [Example 48], the IC50 worked out at 435 nM in assay [1] and 7.9 nM in assay [2].
Take `CN(C(=O)c1ccc2nc(N)c3ccsc3c2c1)C1COC(C)(C)c2cc(C(F)(F)F)ccc21` (stereo not drawn) [Example 3, 4-Amino-N-(1,1-dimethyl-7-(trifluoromethyl)isochroman-4-yl)-N-methylthieno[3,2-c]quinoline-8-carboxamide]: the values for the IC50 in assay [1] and in assay [2] were 7540 nM and 435 nM, respectively.
With `CN(C(=O)c1ccc2nc(N)c3cnn(C)c3c2c1)[C@@H]1COC(C)(C)c2cc(N3CC4COCC4C3)ccc21` (stereo partly drawn) [Example 56, 4-Amino-N-((4S)-1,1-dimethyl-7-(tetrahydro-1H-furo[3,4-c]pyrrol-5(3H)-yl)isochroman-4-yl)-N,1-dimethyl-1H-pyrazolo[4,3-c]quinoxaline-8-carboxamide], the IC50 in assay [1] came out at 1330 nM; in assay [2] it was 4.4 nM.
On to `CN(C(=O)c1cc2c(cc1C(F)(F)F)nc(N)c1cnn(C)c12)[C@@H]1COC2(CCC2)c2cc(C(F)(F)F)ccc21` [Example 77], for which the IC50 is 1030 nM in assay [1] and 9.8 nM in assay [2].

By IC50 is commonly meant the concentration at which inhibition is half-maximal. High values mean lower potency, low ones higher potency.
